From US10766888B1, “HMOX1 inducers” (Mitobridge Inc., priority 2019, dated 2020) come the findings set out here.

Values after ≈ are worked out from the molar mass of the structure shown.

The target of one data set is hERG channel (Homo sapiens, UniProt Q12809). Briefly: hERG manual patch clamp assay. It counts as cell-based. As to conditions: HEK 293 cells stably expressing hERG channel, pH 7.35, 10 μM compound. As for the experimental part: Cell Lines and Cell Culture
HEK 293 cell line stably expressing hERG channel (Cat # K1236) was purchased from Invitrogen. The cells were cultured in 85% DMEM, 10% dialyzed FBS, 0.1 mM NEAA, 25 mM HEPES, 100 U/mL Penicillin-Streptomycin and 5 μg/mL Blasticidin and 400 μg/mL Geneticin. Cells were split using TrypLE™ Express about three times a week, and maintained between ˜40% to ˜80% confluence. Before the assay, the cells were transferred onto the coverslips at 5×10^5 cells/per 6 cm cell culture dish and induced with doxycycline at 1 μg/mL for 48 hours.
• 1) External solution (in mM): 132 NaCl, 4 KCl, 3 CaCl2, 0.5 MgCl2, 11.1 glucose, and 10 HEPES (pH adjusted to 7.35 with NaOH) • 2) Internal solution (in mM): 140 KCl, 2 MgCl2, 10 EGTA, 10 HEPES and 5 MgATP (pH adjusted to 7.35 with KOH) • 3) hERG currents were tested in presence of 10 μM compound concentration with final concentration of DMSO of 0.1%. Experimental Procedure • 1) Removed the coverslip from the cell culture dish and placed it on the microscope stage in bath chamber. • 2) Located a desirable cell using the 10× objective. Located the tip of the electrode under the microscope using the 10× objective by focusing above the plane of the cells. Once the tip was in focus, advanced the electrode downwards towards the cell using the coarse controls of the manipulator, while simultaneously moving the objective to keep the tip in focus. • 3) When directly over the cell, switched to the 40× objective and used the fine controls of the manipulator to approach the surface of the cell in small steps. • 4) Applied gentle suction through the side-port of the electrode holder to form a gigaohm seal. • 5) Used the Cfast to remove the capacity current that was in coincidence with the voltage step. Obtained the whole cell configuration by applying repetitive, brief, strong suction until the membrane patch ruptured. • 6) Set membrane potential to −60 mV at this point to ensure that hERG channels were not • open. The spikes of capacity current should then be cancelled using the Cslow on the amplifier. 7) Set holding potential to −90 mV for 500 ms; recorded current at 50 kHz and filtered at 10 kHz. Leaking current was tested at −80 mV for 500 ms. • 8) The hERG current was elicited by depolarizing at +30 mV for 4.8 seconds and then the voltage was taken back to −50 mV for 5.2 seconds to remove the inactivation and observe the deactivating tail current. The maximum amount of tail current size was used to determine hERG current amplitude. • 9) Recorded current for 120 seconds to assess the current stability. Only stable cells with recording parameters above threshold were applied for the compound administrations. • 10) Firstly vehicle control was applied to the cells to establish the baseline. […] In order to ensure the good performance of cultured cells and operations, the positive control, Dofetilide, with 5 dose concentration was also used to test the same batch of cells. Data Analysis
The following criteria were used to determine data acceptability. • 1) Initial seal resistance >1 GΩ; • 2) Leak currents <50% of the control peak tail currents at any time; • 3) The peak tail amplitude >250 pA; • 4) Membrane resistance Rm>500 MΩ; • 5) Access resistance (Ra)<10 MΩ; • 6) Apparent run-down of peak current <2.5% per min.
Data that met the above criteria for hERG current quality were further analyzed as the following steps. • 1) Percent hERG current inhibition was calculated using the following equation. • Note: PatchMaster or Clampfit software was used to extract the peak current from the original data.
[formula] • 2) The dose response curve of test compounds was plotted with percentage of hERG current inhibition against the concentration of test compounds using Graphpad Prism 6.0, and fit to a sigmoid dose-response curve with a variable slope.

The test system of data set [1] is Human Heme Oxygenase-1 (HMOX-1). The experiment in a line: ELISA assay to measure human heme oxygenase-1 (HMOX-1) in HepG2 lysate. Format: cell-based. As to conditions: human HMOX1 protein level in HepG2 lysate; * = average of 2 or more EC50 determinations; NA = Not Active; read-out: EC50. In short, it runs like this:
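Treated HepG2 cells were lysed in PBS with 0.5% Triton X100, 1 mM EDTA and protease inhibitors, and lysates were diluted 1:20. HO-1 was measured by sandwich ELISA (biotinylated detection antibody, streptavidin-HRP, chemiluminescence) at room temperature against a standard curve from 20 ng/ml. EC50 and fold change were expressed relative to DMSO control.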
Background: ELISA stands for enzyme-linked immunosorbent assay.

A further data set can be described thus: Kinetic solubility. Format: physicochemical. As to conditions: Dulbecco's phosphate buffer saline (DPBS), aqueous buffer, kinetic from dmso stock, DPBS pH 7.4, 25° C., 200 μM test compound. The procedure:
Example 144. Kinetic Solubility
10 μL of 10 mM DMSO stock solution were aliquotted to 490 μL of DMSO solution and separately 490 μL of Dulbecco's phosphate buffer saline, DPBS, pH 7.4 solution in 1.2 mL 96-well plates in duplicate. Final concentration was 200 μM of the test compound. Samples were incubated at 25° C. with shaking at 200 rpm for 16 h. Samples were centrifuged at 3500 rpm for 20 min at 25° C., and supernatant was submitted for HPLC analysis.
Kinetic solubility was measured using the following equation: […]

Chain of hERG channel (Q12809 whole entry): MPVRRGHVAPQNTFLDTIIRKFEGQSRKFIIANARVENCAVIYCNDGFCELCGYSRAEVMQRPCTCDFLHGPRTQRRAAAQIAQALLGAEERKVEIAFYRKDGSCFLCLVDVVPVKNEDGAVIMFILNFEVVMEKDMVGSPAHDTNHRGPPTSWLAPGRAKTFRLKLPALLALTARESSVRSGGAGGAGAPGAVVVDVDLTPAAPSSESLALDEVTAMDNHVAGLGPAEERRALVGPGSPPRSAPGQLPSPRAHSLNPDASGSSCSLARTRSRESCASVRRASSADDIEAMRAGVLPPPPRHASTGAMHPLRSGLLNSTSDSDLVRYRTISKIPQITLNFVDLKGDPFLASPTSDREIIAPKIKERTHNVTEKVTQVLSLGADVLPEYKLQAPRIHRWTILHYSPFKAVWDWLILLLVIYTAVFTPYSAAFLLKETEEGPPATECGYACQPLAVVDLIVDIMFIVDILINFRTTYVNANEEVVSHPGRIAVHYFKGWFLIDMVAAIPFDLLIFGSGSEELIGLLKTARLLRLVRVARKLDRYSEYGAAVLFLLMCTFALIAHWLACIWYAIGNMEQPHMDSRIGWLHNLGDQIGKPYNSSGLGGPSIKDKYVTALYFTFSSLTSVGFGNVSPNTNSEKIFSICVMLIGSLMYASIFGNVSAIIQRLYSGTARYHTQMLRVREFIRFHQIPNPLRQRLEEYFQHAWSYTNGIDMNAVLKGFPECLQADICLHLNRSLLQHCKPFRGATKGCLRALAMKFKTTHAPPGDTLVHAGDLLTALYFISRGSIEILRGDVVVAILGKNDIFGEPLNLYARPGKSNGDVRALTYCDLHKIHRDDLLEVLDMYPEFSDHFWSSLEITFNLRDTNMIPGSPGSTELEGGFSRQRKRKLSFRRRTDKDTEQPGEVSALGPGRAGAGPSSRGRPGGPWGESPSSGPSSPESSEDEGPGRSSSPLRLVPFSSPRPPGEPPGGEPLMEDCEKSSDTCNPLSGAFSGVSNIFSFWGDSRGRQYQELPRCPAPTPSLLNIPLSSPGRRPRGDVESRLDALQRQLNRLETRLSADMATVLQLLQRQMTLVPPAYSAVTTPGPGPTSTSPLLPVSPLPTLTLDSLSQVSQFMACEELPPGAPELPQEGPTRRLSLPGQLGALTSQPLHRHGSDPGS

At hERG channel, `CC1CCc2nc(Nc3nc4cc(C(=O)NCCOCCO)ccc4n3C)sc2C1` (stereo not shown) [Ex 7, N-(2-(2-hydroxyethoxy)ethyl)-1-methyl-2-((6-methyl-4,5,6,7-tetrahydrobenzo[d]thiazol-2-yl)amino)-1H-benzo[d]imidazole-5-carboxamide] yielded an inhibition at 10 µM of 6%.

Regarding `CN(C)CC(=O)NCCNC(=O)c1ccc2c(c1)nc(Nc1nc3ccccc3o1)n2C` [Example 19, 2-(benzo[d]oxazol-2-ylamino)-N-(2-(2-(dimethylamino)acetamido)ethyl)-1-methyl-1H-benzo[d]imidazole-5-carboxamide], in data set [1], the EC50 was found to be 1800 nM. On hERG channel, this compound returned an inhibition at 10 µM of 29%.

For the compound `Cn1c(Nc2nc3cc(F)ccc3[nH]2)nc2cc(C(=O)O)ccc21` [Example 73, 2-((5-fluoro-1H-benzo[d]imidazol-2-yl)amino)-1-methyl-1H-benzo[d]imidazole-5-carboxylic acid], the concentration giving a half-maximal response (EC50) in data set [1] came out at 2900 nM. Moreover, the inhibition at 10 µM on hERG channel stood at 5%.

On to `Cn1c(Nc2nc3cccc(C(F)(F)F)c3o2)nc2cc(C(=O)NCCOCCO)ccc21` [Example 117, N-(2-(2-hydroxyethoxy)ethyl)-1-methyl-2-((7-(trifluoromethyl)benzo[d]oxazol-2-yl)amino)-1H-benzo[d]imidazole-5-carboxamide], for which the EC50 in data set [1] turned out to be 1800 nM. In “Kinetic solubility”, the solubility at 16 h came to 1.2 µM (≈ 0.556 µg/mL).

On to `COCCONC(=O)c1ccc2c(c1)nc(Nc1nc3ccccc3o1)n2C` [Example 119, 2-(benzo[d]oxazol-2-ylamino)-N-(2-methoxyethoxy)-1-methyl-1H-benzo[d]imidazole-5-carboxamide], for which the EC50 in data set [1] was 600 nM. Besides, the solubility at 16 h in the data set “Kinetic solubility” is 0.5 µM (≈ 0.191 µg/mL).

Turning to `CC(O)CONC(=O)c1ccc2c(c1)nc(Nc1nc3ccccc3o1)n2C` (stereo not shown) [Example 120, 2-(benzo[d]oxazol-2-ylamino)-N-(2-hydroxypropoxy)-1-methyl-1H-benzo[d]imidazole-5-carboxamide], in data set [1], the EC50 is 2000 nM. This compound displayed a solubility at 16 h in “Kinetic solubility” of 6.5 µM (≈ 2.48 µg/mL).

For `CN(C)CCONC(=O)c1ccc2c(c1)nc(Nc1nc3ccccc3o1)n2C` [Example 123, 2-(benzo[d]oxazol-2-ylamino)-N-(2-(dimethylamino)ethoxy)-1-methyl-1H-benzo[d]imidazole-5-carboxamide], the solubility at 16 h in “Kinetic solubility” is 10.5 µM (≈ 4.14 µg/mL). Besides, 10 µM produced 54% inhibition at hERG channel.

For `Cn1c(Nc2nc3ccc(C(F)(F)F)cc3o2)nc2cc(C(=O)NOCCO)ccc21` [Example 125, N-(2-hydroxyethoxy)-1-methyl-2-((6-(trifluoromethyl)benzo[d]oxazol-2-yl)amino)-1H-benzo[d]imidazole-5-carboxamide], in data set [1], the EC50 was determined as 300 nM. The same compound had a solubility at 16 h in the data set “Kinetic solubility” of 3.5 µM (≈ 1.52 µg/mL).

For the compound `Cn1c(Nc2nc3ccc(OC(F)(F)F)cc3o2)nc2cc(C(=O)NOCCO)ccc21` [Example 126, N-(2-hydroxyethoxy)-1-methyl-2-((6-(trifluoromethoxy)benzo[d]oxazol-2-yl)amino)-1H-benzo[d]imidazole-5-carboxamide], the concentration for a half-maximal effect (EC50) in data set [1] was 500 nM. Moreover, the solubility at 16 h in the data set “Kinetic solubility” was determined as 2.1 µM (≈ 0.948 µg/mL).

`COCCONC(=O)c1ccc2c(c1)nc(Nc1nc3ccc(OC(F)(F)F)cc3o1)n2C` [Example 127, N-(2-methoxyethoxy)-1-methyl-2-((6-(trifluoromethoxy)benzo[d]oxazol-2-yl)amino)-1H-benzo[d]imidazole-5-carboxamide]: in data set [1], the 50% effective concentration (EC50) turned out to be 500 nM. In the data set “Kinetic solubility”, this compound returned a solubility at 16 h below 2 µM.

Consider `Cn1c(Nc2nc3ccc(OCCO)cc3o2)nc2cc(C(=O)NOCCO)ccc21` [Example 129, N-(2-hydroxyethoxy)-2-((6-(2-hydroxyethoxy)benzo[d]oxazol-2-yl)amino)-1-methyl-1H-benzo[d]imidazole-5-carboxamide], for which the 50% effective concentration (EC50) in data set [1] amounted to 3400 nM. The solubility at 16 h in “Kinetic solubility” stood at 14.1 µM (≈ 6.03 µg/mL).

Regarding `Cn1c(Nc2nc3cc(F)c(C(F)(F)F)cc3o2)nc2cc(C(=O)NOCCO)ccc21` [Example 130, 2-((5-fluoro-6-(trifluoromethyl)benzo[d]oxazol-2-yl)amino)-N-(2-hydroxyethoxy)-1-methyl-1H-benzo[d]imidazole-5-carboxamide], the EC50 in data set [1] was found to be 740 nM. In addition, the solubility at 16 h in “Kinetic solubility” was below 2 µM.

Regarding `CC1CCc2nc(Nc3nc4cc(C(=O)NOCCO)ccc4n3C)sc2C1` (stereo not shown) [Example 131, N-(2-hydroxyethoxy)-1-methyl-2-((6-methyl-4,5,6,7-tetrahydrobenzo[d]thiazol-2-yl)amino)-1H-benzo[d]imidazole-5-carboxamide], the EC50 in data set [1] was determined as 1400 nM. In addition, the solubility at 16 h in the data set “Kinetic solubility” is 6.7 µM (≈ 2.69 µg/mL).

For the compound `COCCONC(=O)c1ccc2c(c1)nc(Nc1nc3ccc(C(C)=O)cc3o1)n2C` [Example 132, 2-((6-acetylbenzo[d]oxazol-2-yl)amino)-N-(2-methoxyethoxy)-1-methyl-1H-benzo[d]imidazole-5-carboxamide], in data set [1], the half-maximal effective concentration (EC50) amounted to 1500 nM. The compound further yielded a solubility at 16 h in “Kinetic solubility” of 3.1 µM (≈ 1.31 µg/mL).

On to `Cn1c(Nc2nc3ccc(C(C)(C)O)cc3o2)nc2cc(C(=O)NCCO)ccc21` [Example 133, N-(2-hydroxyethyl)-2-((6-(2-hydroxypropan-2-yl)benzo[d]oxazol-2-yl)amino)-1-methyl-1H-benzo[d]imidazole-5-carboxamide], for which, in data set [1], the EC50 was 5300 nM. Besides, the solubility at 16 h in “Kinetic solubility” amounted to 9.2 µM (≈ 3.77 µg/mL).

With `Cn1c(Nc2nc3ccc(-c4cscn4)cc3o2)nc2cc(C(=O)NCCOCCO)ccc21` [Example 134, N-(2-(2-hydroxyethoxy)ethyl)-1-methyl-2-((6-(thiazol-4-yl)benzo[d]oxazol-2-yl)amino)-1H-benzo[d]imidazole-5-carboxamide], the concentration giving a half-maximal response (EC50) in data set [1] came to 1400 nM. For the same compound, the solubility at 16 h in “Kinetic solubility” is below 2 µM.

Regarding `Cn1c(Nc2nc3ccc(N4CCOCC4)cc3o2)nc2cc(C(=O)NCCOCCO)ccc21` [Example 136, N-(2-(2-hydroxyethoxy)ethyl)-1-methyl-2-((6-morpholinobenzo[d]oxazol-2-yl)amino)-1H-benzo[d]imidazole-5-carboxamide], the 50% effective concentration (EC50) in data set [1] was found to be 2900 nM. Moreover, in “Kinetic solubility”, the solubility at 16 h amounted to 10.6 µM (≈ 5.09 µg/mL).

Take `Cn1c(Nc2nc3ccccc3o2)nc2cc(C(=O)C(F)(F)F)ccc21` [Example 139, 1-(2-(benzo[d]oxazol-2-ylamino)-1-methyl-1H-benzo[d]imidazol-5-yl)-2,2,2-trifluoroethan-1-one]: in data set [1], the EC50 stood at 2600 nM. Besides, in “Kinetic solubility”, the solubility at 16 h was below 2 µM.

On to `Cn1c(Nc2nc3ccccc3o2)nc2cc(C(N)C(F)(F)F)ccc21` (stereo not shown) [Example 141, N-(5-(1-amino-2,2,2-trifluoroethyl)-1-methyl-1H-benzo[d]imidazol-2-yl)benzo[d]oxazol-2-amine], for which, in data set [1], the concentration giving a half-maximal response (EC50) came to 3600 nM. Besides, the solubility at 16 h in “Kinetic solubility” was found to be 9 µM (≈ 3.25 µg/mL).

The term inhibition denotes how much of the control response was suppressed. As usually defined, the EC50 is the concentration at which the effect is half-maximal. The term solubility denotes how much of the substance goes into solution per volume. High values mean a readily soluble substance, low ones a poorly soluble substance.
